This note sets out measurements from PubChem BioAssay (NCI).

Each structure is given as a SMILES string.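 Test compounds were applied to cells in 96-well plates for 48 hours at 5 doses. The concentration for 50% growth inhibition is given as GI50. At the TGI there is no net growth.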

Some test systems named below: NCI-H23 lung; NCI-H226 lung; A549 NSCLC; 786-0 renal; U251 CNS; OVCAR-8 ovarian; SNB-75 CNS; SF-539 CNS; UACC-62 melanoma; EKVX NSCLC.
Holding throughout (experiment): DTP human tumour cell line panel, 48 h

For `CCN(CC)c1ccc(/C=C/C2=[N+](C)c3ccccc3C2(C)C)cc1`, the concentration for 50% growth inhibition (GI50) is 181 nM in the assay with NCI-H23 lung; 992 nM in the assay with NCI-H226 lung; 518 nM in the assay on A549 NSCLC; 653 nM with 786-0 renal; 201 nM in the assay with U251 CNS; 442 nM in the assay on OVCAR-8 ovarian. The GI50 in the assay with SNB-75 CNS was 340 nM; in the assay with SF-539 CNS, 776 nM; in the assay with UACC-62 melanoma, 435 nM; in the assay with EKVX NSCLC it was 235 nM. Besides, the TGI with NCI-H23 lung was 25800 nM; with NCI-H226 lung, 18700 nM; with A549 NSCLC, over 100000 nM; in the assay with 786-0 renal, 13600 nM; in the assay with U251 CNS, 21600 nM; in the assay with OVCAR-8 ovarian it was over 100000 nM. The TGI came out at 17300 nM in the assay on SNB-75 CNS, 13900 nM in the assay with SF-539 CNS, 14900 nM with UACC-62 melanoma and 14000 nM in the assay with EKVX NSCLC.
`C=C(CNCCc1ccc(O)cc1)[C@@H]1CC[C@]2(CO)CC[C@]3(C)[C@H](CC[C@@H]4[C@@]5(C)CCC(NCCO)C(C)(C)[C@@H]5CC[C@]43C)[C@@H]12` (stereo not given in full): the GI50 was 1780 nM in the assay with NCI-H23 lung; 2000 nM in the assay on NCI-H226 lung; 1700 nM in the assay with A549 NSCLC; 1250 nM in the assay on 786-0 renal; 1060 nM in the assay on U251 CNS; 1790 nM in the assay on OVCAR-8 ovarian. The GI50 in the assay on SNB-75 CNS is 1240 nM; in the assay with SF-539 CNS it was 1500 nM; with UACC-62 melanoma, 1790 nM; in the assay on EKVX NSCLC it was 1600 nM. In addition, the TGI with NCI-H23 lung is 3490 nM; in the assay on NCI-H226 lung it was 4310 nM; with A549 NSCLC, 3120 nM; with 786-0 renal it was 2580 nM; with U251 CNS, 2240 nM; in the assay with OVCAR-8 ovarian it was 3220 nM. Besides, the TGI amounted to 2520 nM in the assay with SNB-75 CNS, 2870 nM in the assay with SF-539 CNS, 3300 nM in the assay on UACC-62 melanoma and 3410 nM in the assay with EKVX NSCLC.
On to `CCN1C(=O)N(CC)C2C1NN=c1s/c(=C\c3ccc([N+](=O)[O-])cc3)c(=O)n12` (stereo not given), for which the GI50 is 1110 nM with NCI-H23 lung; 2160 nM in the assay with NCI-H226 lung; 681 nM with A549 NSCLC; 621 nM with 786-0 renal; 506 nM with U251 CNS; 885 nM with OVCAR-8 ovarian. The GI50 is 181 nM in the assay on SNB-75 CNS, 338 nM in the assay with SF-539 CNS, 500 nM in the assay on UACC-62 melanoma and 893 nM in the assay on EKVX NSCLC. For the same compound, the TGI in the assay on NCI-H23 lung was over 100000 nM; with NCI-H226 lung, over 71000 nM; in the assay on A549 NSCLC, over 100000 nM; in the assay with 786-0 renal, over 100000 nM; in the assay with U251 CNS, over 100000 nM; with OVCAR-8 ovarian it was over 91100 nM. For the same compound, the TGI is 783 nM in the assay on SNB-75 CNS, 2830 nM in the assay with SF-539 CNS, over 100000 nM in the assay with UACC-62 melanoma and over 100000 nM with EKVX NSCLC.
For `CC1OC(OC2C(OC3CCC4(C)C(CCC5(C)C4CC=C4C6CC(C)(C)CCC6(CO)C(O)CC45C)C3(C)C)OC(C(=O)O)C(OC3OC(COC4OC(CO)C(O)C(O)C4O)C(O)C(O)C3O)C2O)C(O)C(O)C1O` (stereo not given), the GI50 in the assay with NCI-H23 lung was 1770 nM; in the assay on NCI-H226 lung it was 3350 nM; in the assay on A549 NSCLC it was 12200 nM; with 786-0 renal it was 1150 nM; in the assay on U251 CNS, 10200 nM; in the assay with OVCAR-8 ovarian, 13500 nM. Moreover, the GI50 in the assay with SNB-75 CNS was 11200 nM; in the assay with SF-539 CNS, 8480 nM; in the assay on UACC-62 melanoma, 9640 nM; in the assay with EKVX NSCLC, 2410 nM. Also, the TGI stood at 4670 nM in the assay with NCI-H23 lung; 16100 nM in the assay on NCI-H226 lung; 28100 nM in the assay with A549 NSCLC; 3010 nM in the assay on 786-0 renal; 22100 nM in the assay with U251 CNS; 28500 nM with OVCAR-8 ovarian. Besides, the TGI amounted to 23000 nM in the assay with SNB-75 CNS, 20500 nM with SF-539 CNS, 20600 nM with UACC-62 melanoma and 11500 nM in the assay on EKVX NSCLC.
